Data from patent US6642271B2, “Potentiating compounds” (Ardenia Investments, Ltd., priority 2001, dated 2003).
Several values for one entry are separate records, joined by “and”; a condition that tells them apart may be missing. Identical values can stand only once.

Assays:
[1] = system: human breast adenocarcinoma MDA-MB-231 cell line; assay: Cytotoxicity: cell growth inhibition in cultures, viable cells counted by trypan blue exclusion; format: cell-based
Protocol: The cell line was propagated by cultivation in Nunclon 25 cm^2 flasks (Nunc A/S, Denmark) in Minimum Essential Medium Eagle (MEM), containing antibiotics and supplemented with 10% (v/v) fetal bovine serum (FBS) (Sigma, St. Louis, Mo., USA). The cultures were maintained in growth medium at 37° C. in a humidified atmosphere, 95% air and 5% CO2.
A suspension of tumour cells (60×10^3 cells/mL) was prepared in MEM with 5% FBS and antibiotics. Cell suspension (200 μL) was seeded in wells of Nunclon 96-microwell plates (Nunc A/S, Denmark) at a density of 12×10^3 cell/well. The solutions of the drugs to be tested were added to the cultures on day 0 or day 1 in volumes of 2 μL. In all cases the cells were incubated for 3 days.
At the end of the incubation period, adherent cells were detached by trypsinization and the number of viable cells was counted using trypan blue dye exclusion test and a hemocytometer.
All experiments were performed at least twice and the cells counts were done in triplicate for each drug concentration. Each control and test series consisted of 6-8 cultures. The results are expressed as mean cell number ±SD and the differences between control and test series were evaluated by means of Student's t-test. The cytotoxicity of each tested drug was evaluated by the extent of cell growth inhibition. The Cell growth inhibition was evaluated as follows:
Cell growth inhibition, %=- - - ×100

[2] = Solubility of compounds and formulations; format: physicochemical
Protocol: The obtained solution can be stored for at least three months at low temperatures, without noticeable change in the properties of compound (I-VI). Moreover, the formulation retains its cytotoxic effects during prolonged storage. Before use, the solution is evaporated in vacuo to yield a waxy solid which is dissolved in saline or other commonly used vehicle for intravenous infusion to a patient. […] An ethanol solution is prepared of one of N-(all-trans-Retinoyl)-L-cysteic acid (I), N-(13-cis-Retinoyl)-L-cysteic acid (11), N-(all-trans-Retinoyl)-L-homocysteic acid (III), N-(13-cis-Retinoyl)-L-homocysteic acid (IV), N-(all-trans-Retinoyl)-L-cysteinesulfinic acid (V), or N-(13-cis-Retinoyl)-L-cysteinesulfinic acid (VI). The obtained solution is evaporated in vacuo to give waxy solid, whereupon Taxol® is added, dissolving the waxy solid. […]

With `CC1=C(/C=C/C(C)=C/C=C/C(C)=C/C(=O)N[C@@H](CCS(=O)(=O)O)C(=O)O)C(C)(C)CCC1` [Compound III, N-(all-trans-Retinoyl)-L-homocysteic acid] the inhibition at 0.04 µM ([1]; Homo sapiens, MDA-MB-231, sodium salt in saline, final 4 × 10^−8 mol/L, day 1, three days) was 32.8%, the inhibition at 1 µM ([1]; Homo sapiens, MDA-MB-231, sodium salt in saline, final 10^−6 mol/L (top of range 10^−11 M to 10^−6 M), day 1, three days) was 36.1% and the inhibition at 0.1 µM ([1]; Homo sapiens, MDA-MB-231, sodium salt in saline, final 10^−7 mol/L, day 1, three days) was 34.4%. For the same compound, the inhibition at 0.01 µM ([1]; Homo sapiens, MDA-MB-231, sodium salt in saline, final 10^−8 mol/L, day 1, three days) was 25.8%, the inhibition at 0.001 µM ([1]; Homo sapiens, MDA-MB-231, sodium salt in saline, final 10^−9 mol/L, day 1, three days) was 19.7% and the inhibition at 0.0001 µM ([1]; Homo sapiens, MDA-MB-231, sodium salt in saline, final 10^−10 mol/L, day 1, three days) was 15.5%. For the same compound, the inhibition at 10 pM ([1]; Homo sapiens, MDA-MB-231, sodium salt of the compound dissolved in saline (1 mg/ml), final concentration 10^−11 mol/L, day 1, three days) was 16.9%, the “Cell growth inhibition % Formulation” value ([1]; compound/paclitaxel formulations in saline) was “close to 60%” and the “Cell growth inhibition % OF W/SAB” value ([1]; dried compound/paclitaxel mixed-micellar system (OF), freeze-dried as water solution, reconstituted with 0.05 M sodium acetate buffer) was “close to 62%”. The “Cell growth inhibition % OF SAB/W” value ([1]; dried compound/paclitaxel mixed-micellar system (OF), freeze-dried in 0.05 M sodium acetate buffer, reconstituted with water) was “close to 63%”, the “number of living cells” value ([1]; sodium salt in saline, final 4 × 10^−8 mol/L, day 1, three days) was 36.5 ± 2.08 × 10^3 and the cell growth inhibition ([1]; sodium salt in saline, final 10^−6 mol/L (top of range 10^−11 M to 10^−6 M), day 1, three days) was about 35%. The “number of living cells” value ([1]; sodium salt in saline, final 10^−6 mol/L, day 1, three days) was 34.7 ± 1.52 × 10^3, the “number of living cells” value ([1]; sodium salt in saline, final 10^−7 mol/L, day 1, three days) was 35.6 ± 1.68 × 10^3 and the “number of living cells” value ([1]; sodium salt in saline, final 10^−8 mol/L, day 1, three days) was 40.3 ± 3.36 × 10^3. The “number of living cells” value ([1]; sodium salt in saline, final 10^−9 mol/L, day 1, three days) was 43.6 ± 2.57 × 10^3, the “number of living cells” value ([1]; sodium salt in saline, final 10^−10 mol/L, day 1, three days) was 45.9 ± 2.84 × 10^3 and the “number of living cells” value ([1]; sodium salt of the compound dissolved in saline (1 mg/ml), final concentration 10^−11 mol/L, day 1, three days) was 45.1 ± 3.51 × 10^3. The “solubility in the commercially available Taxol® preparation” value [2] was “excellent solubility” and the solubility in solvents ([2]; sodium salts) was “also dissolved in methanol and some methanol containing mixtures”.
In the case of `CC(=O)O[C@H]1C(=O)[C@@]2(C)[C@H]([C@H](OC(=O)c3ccccc3)[C@]3(O)C[C@H](OC(=O)[C@H](O)[C@@H](NC(=O)c4ccccc4)c4ccccc4)C(C)=C1C3(C)C)[C@]1(OC(C)=O)CO[C@@H]1C[C@@H]2O` [Paclitaxel, reference compound], the “number of living cells” value ([1]; 8 × 10^−9 mol/L of paclitaxel (formulation: plus 4 × 10^−8 mol/L of compound, molar ratio 1:5), added day 0, three days) was 15.5 ± 1.63 × 10^3 and 26.3 ± 1.96 × 10^3, the cell growth inhibition ([1]; at concentrations close to the IC50 concentration) was about 46% and the cell growth inhibition ([1]; drug alone, 10 nM paclitaxel, added day 1, three days of cultivation, positive control of molar-ratio experiments) was 46.1% and 44.3%.
